The assay deals with T1, Orexin receptor type 2 (Homo sapiens, UniProt O43614).
T1 sequence (O43614 whole entry): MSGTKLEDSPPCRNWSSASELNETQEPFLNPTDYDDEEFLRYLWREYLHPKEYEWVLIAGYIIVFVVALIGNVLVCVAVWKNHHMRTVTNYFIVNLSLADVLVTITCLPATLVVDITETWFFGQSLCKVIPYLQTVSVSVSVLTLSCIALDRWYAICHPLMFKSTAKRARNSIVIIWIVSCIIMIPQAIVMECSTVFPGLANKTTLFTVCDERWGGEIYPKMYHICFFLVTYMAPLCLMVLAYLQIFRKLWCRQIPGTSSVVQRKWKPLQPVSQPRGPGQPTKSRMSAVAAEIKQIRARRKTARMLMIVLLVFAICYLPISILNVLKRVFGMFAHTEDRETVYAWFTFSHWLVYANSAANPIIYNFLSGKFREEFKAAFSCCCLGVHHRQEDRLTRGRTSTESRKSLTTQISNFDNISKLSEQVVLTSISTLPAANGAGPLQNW
Briefly: FLIPR Ca2+ Flux Assay. How it is done: For intracellular calcium measurements, Chinese hamster ovary (CHO) cells expressing the rat orexin-1 receptor or the human orexin-2 receptor, are grown in Iscove's modified DMEM containing 2 mM L-glutamine, […], 1% hypoxanthine-thymidine supplement, 100 U/ml penicillin, 100 μg/ml streptomycin and 10% heat-inactivated fetal calf serum (FCS). The cells are seeded at 20,000 cells/well into Becton-Dickinson black 384-well clear bottom sterile plates coated with poly-D-lysine. All reagents were from GIBCO-Invitrogen Corp. The seeded plates are incubated overnight at 37° C. and 5% CO2. Ala-6,12 human orexin-A as the agonist is prepared as a 1 mM stock solution in 1% bovine serum albumin (BSA) and diluted in assay buffer (HBSS containing 20 mM HEPES, 0.1% BSA and 2.5 mM probenecid, pH7.4) for use in the assay at a final concentration of 70 pM. […] Within the Fluorescent Imaging Plate Reader (FLIPR, Molecular Devices), test compounds are added to the plate in a volume of 25 μl, incubated for 5 min and finally 25 μl of agonist is added. Fluorescence is measured for each well at 1 second intervals for 5 minutes and the height of each fluorescence peak is compared to the height of the fluorescence peak induced by 70 pM Ala-6,12 orexin-A with buffer in place of antagonist.
In general terms: A change in cytosolic calcium serves as a functional read-out for many receptors and channels.

Data on two compounds can be found in BindingDB's records for patent US10010539 (Merck Sharp & Dohme, 2018).

The IC50 is the concentration that inhibits the measured activity by half. Higher therefore signals a need for much substance.

As to `CCOc1ccccc1C(=O)N1C[C@H](n2ncc(C(C)(C)O)n2)CC[C@H]1C` [US10010539, 12], 31.3 nM corresponded to half-maximal inhibition (IC50).

`CC(C)Oc1ncccc1C(=O)N1C[C@H](n2ncc(C(C)(C)O)n2)CC[C@H]1C` [US10010539, 15]: the IC50 came to 32.6 nM.
